Measurements taken from ChEMBL document CHEMBL1154109, “In vitro biological activity and structural analysis of 2,4-diamino-5-(2'-arylpropargyl)pyrimidine inhibitors of Candida albicans” (Bioorg Med Chem, 2009).
pIC50: −log10 of the molar value. ≈ marks a conversion by molar mass, not a printed value. Calls of active or inactive are those of the source. The calls are words filed in the database; no cut-off is given here.

Tests used:
Dihydrofolate reductase [1] = biological target: T1, Dihydrofolate reductase (Candida albicans, UniProt P22906)
T1 sequence (P22906 whole entry): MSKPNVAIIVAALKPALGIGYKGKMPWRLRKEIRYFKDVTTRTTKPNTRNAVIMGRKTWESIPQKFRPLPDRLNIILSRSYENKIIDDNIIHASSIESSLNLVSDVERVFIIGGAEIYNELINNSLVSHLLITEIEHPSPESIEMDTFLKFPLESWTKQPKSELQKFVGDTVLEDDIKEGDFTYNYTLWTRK
Description: Inhibition of Candida albicans DHFR expressed in Escherichia coli BL21 (DE3) assessed as rate of NADPH consumption using dihydrofolate as substrate

Candida albicans [2] = system: Candida albicans
[3] = Cytotoxicity against human MCF10A cells after 4 hrs by alamar blue assay; details: MCF-10A
Candida albicans [4] = assay: Antifungal activity against Candida albicans by alamar blue assay
Dihydrofolate reductase [5] = biological target: T2, Dihydrofolate reductase (Homo sapiens, UniProt P00374)
T2 sequence (P00374 whole entry): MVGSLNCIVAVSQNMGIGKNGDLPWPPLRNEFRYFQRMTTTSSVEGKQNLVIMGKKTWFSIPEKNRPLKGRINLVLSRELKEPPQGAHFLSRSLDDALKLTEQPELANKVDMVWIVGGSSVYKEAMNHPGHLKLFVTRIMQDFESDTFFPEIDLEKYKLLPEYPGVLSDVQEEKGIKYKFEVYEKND
Description: Inhibition of human DHFR assessed as rate of NADPH consumption using dihydrofolate as substrate

SMILES | pIC50 (Dihydrofolate reductase [1]) | MIC (Candida albicans [2]) | other results
COc1cc(CC#Cc2cnc(N)nc2N)cc(OC)c1OC | 6.09 | inactive | –
COc1cc(CC#Cc2c(C)nc(N)nc2N)cc(OC)c1OC | 6.74 | inactive | –
COc1cc(-c2ccccc2)cc([C@@H](C)C#Cc2c(C)nc(N)nc2N)c1 | 7.48 | – | –
COc1cc(-c2ccccc2)cc([C@H](C)C#Cc2c(C)nc(N)nc2N)c1 | 7.43 | – | –
CCc1nc(N)nc(N)c1C#CCc1cc(OC)c(OC)c(OC)c1 | 7.74 | – | –
COc1ccc(OC)c(CC#Cc2c(C)nc(N)nc2N)c1 | 6.39 | – | –
CCc1nc(N)nc(N)c1C#CCc1cc(OC)ccc1OC | 7.00 | – | pIC50 [3]: 4.20
CCCc1nc(N)nc(N)c1C#CCc1cc(OC)ccc1OC | 7.35 | – | –
COc1ccc(OC)c(CC#Cc2cnc(N)nc2N)c1 | 5.85 | – | –
COc1cc(CC#Cc2c(C)nc(N)nc2N)cc(-c2c(C)cccc2C)c1 | 7.26 | – | –
COc1cc(C(C)C#Cc2cnc(N)nc2N)cc(OC)c1OC (racemic) | 6.74 | inactive | –
COc1cc(C(C#Cc2cnc(N)nc2N)OC)cc(OC)c1OC (racemic) | 5.60 | inactive | –
COc1cc(C(C#Cc2c(C)nc(N)nc2N)OC)cc(OC)c1OC (racemic) | 6.49 | inactive | –
COc1cc(C(O)C#Cc2c(C)nc(N)nc2N)cc(OC)c1OC (racemic) | 6.01 | inactive | pIC50 [3]: 3.00
COc1cc(C(C)C#Cc2c(C)nc(N)nc2N)cc(OC)c1OC (racemic) | 6.96 | – | –
COc1cc(C(O)C#Cc2cnc(N)nc2N)cc(OC)c1OC (racemic) | 4.92 | inactive | –
COc1cc(-c2c(C)cccc2C)cc(C(C)C#Cc2c(C)nc(N)nc2N)c1 (racemic) | 7.35 | – | –

SMILES | pIC50 (Dihydrofolate reductase [1]) | MIC (Candida albicans [2]) | other results
COc1cc(-c2c(C(C)C)cccc2C(C)C)cc(C(C)C#Cc2c(C)nc(N)nc2N)c1 (racemic) | 7.42 | inactive | –
COc1cc(C(C)C#Cc2c(C)nc(N)nc2N)ccc1-c1ccccc1 (racemic) | 7.26 | – | pIC50 [3]: 4.10
COc1cc(C(C)C#Cc2c(C)nc(N)nc2N)ccc1-c1c(C)cccc1C (racemic) | 7.49 | inactive | –
COc1cc(C(C)C#Cc2c(C)nc(N)nc2N)ccc1-c1c(C(C)C)cccc1C(C)C (racemic) | 7.39 | inactive | –
COc1cc(-c2ccccc2C)cc(C(C)C#Cc2c(C)nc(N)nc2N)c1 (racemic) | 7.35 | – | –
COc1cc(-c2ccccc2)cc(C(C)C#Cc2c(C)nc(N)nc2N)c1 (racemic) | – | – | MIC (Candida albicans [4]): 90 µg/mL (≈ 251 µM)
COc1ccc(-c2cc(OC)cc(C(C)C#Cc3c(C)nc(N)nc3N)c2)cc1 (racemic) | 7.52 | – | –
COc1ccc(OC)c(C(O)C#Cc2c(C)nc(N)nc2N)c1 (racemic) | 6.14 | – | –
COc1ccc(OC)c(C(C)C#Cc2c(C)nc(N)nc2N)c1 (racemic) | 7.32 | – | pIC50 (Dihydrofolate reductase [5]): 6.40
CCC(C#Cc1c(C)nc(N)nc1N)c1cc(OC)c(OC)c(OC)c1 (racemic) | 7.35 | – | pIC50 (Dihydrofolate reductase [5]): 6.70
COc1cc(-c2ccccc2)cc(C(O)C#Cc2c(C)nc(N)nc2N)c1 (racemic) | 7.04 | inactive | –
COc1cc(-c2cc(C)cc(C)c2)cc(C(C)C#Cc2c(C)nc(N)nc2N)c1 (racemic) | 7.77 | – | –
CCc1nc(N)nc(N)c1C#CC(C)c1cc(OC)c(OC)c(OC)c1 (racemic) | 7.70 | – | –
COc1cc(-c2ccc(C(C)(C)C)cc2)cc(C(C)C#Cc2c(C)nc(N)nc2N)c1 (racemic) | 7.47 | – | pIC50 [3]: 4.30
COc1cc(C(C#Cc2c(C)nc(N)nc2N)C(C)C)cc(OC)c1OC (racemic) | 7.48 | – | –
COc1ccc(OC)c(C(C#Cc2c(C)nc(N)nc2N)OC)c1 (racemic) | 6.26 | inactive | pIC50 (Dihydrofolate reductase [5]): 7.22
COc1cc(-c2ccc(C)cc2)cc(C(C)C#Cc2c(C)nc(N)nc2N)c1 (racemic) | 7.66 | – | –
